Experimental data: patent publication US11530244B2, “Cyclic polypeptides for PCSK9 inhibition” (priority 2018, dated 2022)
Starred links: 1 amine or outer side, 2 acyl side, 3 side chain; linkers in the order of their positions; H or OH if unused. Positions of bridges follow the written chain, without caps; N, C: chain ends. Non-standard residues stand in square brackets, D forms with d. Residues, ends and D or L forms follow the SMILES beside them. ξ: configuration not given here. *: point of attachment. Pro(trans-4-cHex) = O=C(O)[C@@H]1C[C@@H](C2CCCCC2)CN1; X25 = O=C([C@H](Cc1cccc(OCC=[*:3])c1)N[*:1])[*:2]; Trp(5-F) = N[C@@H](Cc1c[nH]c2ccc(F)cc12)C(=O)O; Pro(3R-Ph) = O=C(O)[C@H]1NCC[C@@H]1c1ccccc1; X3 = O=C(CCSCc1cc(F)cc(CSCCN[*:1])c1)[*:2]; X42 = CN([C@@H](CCC=[*:3])C(=O)[*:2])[*:1]; mXylylene = c1cc(C[*:1])cc(C[*:2])c1; ξAEF = NCCOc1ccc(CC(N)C(=O)O)cc1; αMeP = C[C@@]1(C(=O)O)CCCN1; Aib = CC(C)(N)C(=O)O; OBn = c1ccc(CO*)cc1; Mpa = O=C(O)CCS

Molecular target: human PCSK9 / human LDLR EGFa domain interaction (Homo sapiens (Human), UniProt Q8NBP7)
Sequence (Q8NBP7 153-692): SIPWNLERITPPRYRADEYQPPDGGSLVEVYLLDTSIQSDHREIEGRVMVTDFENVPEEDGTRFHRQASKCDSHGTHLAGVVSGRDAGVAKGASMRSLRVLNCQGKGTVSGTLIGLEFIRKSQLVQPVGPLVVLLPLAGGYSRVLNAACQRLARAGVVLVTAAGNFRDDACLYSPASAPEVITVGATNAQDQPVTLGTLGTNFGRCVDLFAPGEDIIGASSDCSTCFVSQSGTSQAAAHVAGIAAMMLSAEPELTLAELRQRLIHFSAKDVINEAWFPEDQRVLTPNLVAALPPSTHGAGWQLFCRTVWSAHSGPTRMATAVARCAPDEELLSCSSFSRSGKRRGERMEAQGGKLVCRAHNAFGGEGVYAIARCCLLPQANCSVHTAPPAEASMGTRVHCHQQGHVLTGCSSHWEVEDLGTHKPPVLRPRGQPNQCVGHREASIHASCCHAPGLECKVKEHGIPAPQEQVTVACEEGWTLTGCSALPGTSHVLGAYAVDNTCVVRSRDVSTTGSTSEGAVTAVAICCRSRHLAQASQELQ
Sequence (Q8NBP7 31-152 partner): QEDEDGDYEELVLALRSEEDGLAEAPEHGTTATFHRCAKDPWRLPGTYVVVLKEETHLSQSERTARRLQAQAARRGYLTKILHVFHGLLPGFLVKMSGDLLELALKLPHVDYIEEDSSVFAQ
Test: TR-FRET assay of inhibition of the PCSK9-LDLR protein-protein interaction
Type: binding
Conditions: TR-FRET, 20 nM human PCSK9, 20 nM human LDLR EGFa domain, 2 hours room temperature; read-out: IC50
Procedure: A time-resolved fluorescence resonance energy (TR-FRET) assay was used to measure inhibition of the PCSK9-LDLR protein-protein interaction. Briefly, 20 nM avitag-biotinylated human PCSK9 was incubated with 20 nM his-tagged human LDLR EGFa domain in the presence of 5 nM LANCE Ulight Streptavidin (Perkin Elmer) and 5 nM europium-Anti-6×His (Perkin Elmer) for 2 hours covered at room temperature in buffer containing 50 mM HEPES, 150 mM NaCl, 5 mM CaCl2), 0.01% BSA and 0.01% Surfactant P20. Compounds were tested in dose-response and concentrations giving half-maximal inhibition calculated using a 4-parameter fit equation.

Structure (SMILES)	IC50 [nM]
NCCCC[C@@H]1NC(=O)CCSCc2cccc(c2)CSC[C@@H](C(N)=O)NC(=O)[C@@H]2C[C@@H](C3CCCCC3)CN2C(=O)[C@H](Cc2ccc(O)cc2)NC(=O)[C@H](Cc2c[nH]cn2)NC(=O)[C@H](CC(=O)O)NC(=O)[C@H](Cc2c[nH]c3ccc(F)cc23)NC(=O)[C@H](Cc2c[nH]c3ccc(F)cc23)NC(=O)CNC1=O [Compound 304] ([Mpa]KG[Trp(5-F)][Trp(5-F)]DHY[Pro(trans-4-cHex)]C-NH2; linker 1-10 via mXylylene)	21000 to 50000
CC1(C)NC(=O)[C@H](Cc2c[nH]c3ccc(F)cc23)NC(=O)CNC(=O)[C@H](CCCCN)NC(=O)CCSCc2cccc(c2)CSC[C@@H](C(N)=O)NC(=O)[C@@H]2CCCN2C(=O)[C@H](Cc2ccc(O)cc2)NC(=O)[C@H](Cc2cnc[nH]2)NC(=O)[C@H](CC(=O)O)NC1=O [Compound 317] ([Mpa]KG[Trp(5-F)][Aib]DHYPC-NH2; linker 1-10 via mXylylene)	21000 to 50000
CC1(C)NC(=O)[C@H](Cc2cnc[nH]2)NC(=O)[C@H](CC(=O)O)NC(=O)[C@H](Cc2c[nH]c3ccc(F)cc23)NC(=O)[C@H](Cc2c[nH]c3ccc(F)cc23)NC(=O)CNC(=O)[C@H](CCCCN)NC(=O)CCSCc2cccc(c2)CSC[C@@H](C(N)=O)NC(=O)[C@@H]2CCCN2C1=O [Compound 318] ([Mpa]KG[Trp(5-F)][Trp(5-F)]DH[Aib]PC-NH2; linker 1-10 via mXylylene)	0.1 to 100
CC(=O)N[C@@H]1CC(=O)NCCOc2ccc(cc2)CC(C(N)=O)NC(=O)[C@]2(C)CCCN2C(=O)[C@H](Cc2ccc(O)cc2)NC(=O)[C@H](Cc2cnc[nH]2)NC(=O)[C@H](CC(=O)OCc2ccccc2)NC(=O)[C@H](Cc2c[nH]c3ccc(F)cc23)NC(=O)[C@H](Cc2c[nH]c3ccc(F)cc23)NC(=O)CNC1=O (stereo partly shown) [Compound 321] (Ac-[dD]G[Trp(5-F)][Trp(5-F)]D(OBn)HY[αMeP][ξAEF]-NH2; lactam 1-9)	100 to 1000
COc1ccc(C[C@@H]2NC(=O)[C@H]([C@@H](C)OC)NC(=O)[C@@H]3CC/C=C/COc4cccc(c4)C[C@H](NC(=O)[C@@H](C)NC(=O)[C@H](C)NC(=O)CCSCc4cc(F)cc(c4)CSCCNC(=O)[C@]4(C)CCCN4C2=O)C(=O)N[C@@H](Cc2c[nH]c4ccc(F)cc24)C(=O)N3C)cc1 [Compound 504] (cyclo(A[dA][X25][Trp(5-F)][X42]T(Me)Y(Me)[αMeP][X3]); staple (E) 3-5)	100 to 1000
COc1ccc(C[C@@H]2NC(=O)[C@H]([C@@H](C)OC)NC(=O)[C@@H]3CC/C=C\COc4cccc(c4)C[C@H](NC(=O)[C@@H](C)NC(=O)[C@H](C)NC(=O)CCSCc4cc(F)cc(c4)CSCCNC(=O)[C@]4(C)CCCN4C2=O)C(=O)N[C@@H](Cc2c[nH]c4ccc(F)cc24)C(=O)N3C)cc1 [Compound 505] (cyclo(A[dA][X25][Trp(5-F)][X42]T(Me)Y(Me)[αMeP][X3]); staple (Z) 3-5)	100 to 1000
COc1ccc(C[C@@H]2NC(=O)[C@@H]3CCCC/C=C/CO[C@H]4C[C@@H](C(=O)N3)N(C4)C(=O)[C@H](Cc3c[nH]c4ccc(F)cc34)NC(=O)[C@H](Cc3c[nH]c4ccc(F)cc34)NC(=O)[C@@H](C)NC(=O)[C@H](CCCCN)NC(=O)CCSCc3cccc(c3)CSC[C@@H](C(N)=O)NC(=O)[C@]3(C)CCCN3C2=O)cc1 [Compound 508]	100 to 1000

Further lines, results first:

IC50 [nM]	Structure (SMILES)
1000 to 12100	C[C@@H]1NC(=O)CCSCc2cccc(c2)CSC[C@@H](C(N)=O)NC(=O)[C@]2(C)CCCN2C(=O)[C@H](Cc2ccc(O)cc2)NC(=O)[C@H](Cc2cnc[nH]2)NC(=O)[C@H](CC(=O)O)NC(=O)[C@H](Cc2c[nH]c3ccc(F)cc23)NC(=O)[C@H](Cc2c[nH]c3ccc(F)cc23)NC(=O)CNC1=O [Compound 308] ([Mpa]AG[Trp(5-F)][Trp(5-F)]DHY[αMeP]C-NH2; linker 1-10 via mXylylene)
21000 to 50000	C[C@H]1NC(=O)[C@H](Cc2ccc(O)cc2)NC(=O)[C@H](Cc2cnc[nH]2)NC(=O)[C@H](CC(=O)O)NC(=O)[C@H](Cc2c[nH]c3ccc(F)cc23)NC(=O)[C@H](Cc2c[nH]c3ccc(F)cc23)NC(=O)CNC(=O)[C@H](CCCCN)NC(=O)CCSCc2cccc(c2)CSC[C@@H](C(N)=O)NC1=O [Compound 320] ([Mpa]KG[Trp(5-F)][Trp(5-F)]DHY[dA]C-NH2; linker 1-10 via mXylylene)
1000 to 12100	NCCCC[C@@H]1NC(=O)CCSCc2cccc(c2)CSC[C@@H](C(N)=O)NC(=O)[C@@H]2CCCN2C(=O)[C@@H]2[C@@H](c3ccccc3)CCN2C(=O)[C@H](Cc2c[nH]cn2)NC(=O)[C@H](CC(=O)O)NC(=O)[C@H](Cc2c[nH]c3ccc(F)cc23)NC(=O)[C@H](Cc2c[nH]c3ccc(F)cc23)NC(=O)CNC1=O [Compound 326] ([Mpa]KG[Trp(5-F)][Trp(5-F)]DH[Pro(3R-Ph)]PC-NH2; linker 1-10 via mXylylene)
